Paper PMC8713283 (Journal of Medicinal Chemistry, 2021)
Read-outs that look alike come from different tables or passages of the source.

What was measured:
[1] = Log D(dec/w) shake flask partition coefficient; assay type: physicochemical; conditions: 1,9-decadiene and PBS pH 7.4 shake flask partition coefficient; for logD hydrocarbon water: 1,9-decadiene/PBS
[2] = human
P-gp (human MDR1) = test: in vitro; conditions: dog; for Papp A→B at 5 µM / Papp B→A at 5 µM: MDCK-MDR1; for efflux ratio at 5 µM: MDCK-MDR1, Efflux ratio B-A/A-B, MDCK-MDR1, 5 µM, N = 2
[3] = target: T1, VHL (VCB, VHL:ElonginC:ElonginB) (Homo sapiens, UniProt P40337); test: FP competition binding, binary binding to VHL
T1 construct: His6 (N, cleaved yes); made in house; host or cells: Escherichia coli

[4] = LPEester – LPEamide by amide–ester matched pairs
[5] = compound alone to VHL, FP competition with FAM-HIF-1α peptide, mean ± SEM, read-out: Kd binary
Wherever Plasma stability is given: time not given here.

SMILES	logD hydrocarbon water [1]	Plasma stability [2]	Papp A→B at 5 µM (P-gp (human MDR1))	Papp B→A at 5 µM (P-gp (human MDR1))	efflux ratio at 5 µM (P-gp (human MDR1))	Kd [3, 5]	ΔLPE [4]	LogD (dec/w) [1]	Kd [3]
Cc1ncsc1-c1ccc(CNC(=O)[C@@H]2C[C@@H](O)CN2C(=O)[C@@H](NC(=O)CCCCCNC(=O)CC23CC4CC(CC(C4)C2)C3)C(C)(C)C)cc1 [Compound 5, (2S,4R)-1-((S)-2-(6-(2-(Adamantan-1-yl)acetamido)hexanamido)-3,3-dimethylbutanoyl)-4-hydroxy-N-(4-(4-methylthiazol-5-yl)benzyl)pyrrolidine-2-carboxamide]	-0.2	74 ± 8%	0.2 ×10⁻⁶ cm/s	23.7 ×10⁻⁶ cm/s	158	–	–	–	–
Cc1ncsc1-c1ccc(CNC(=O)[C@@H]2C[C@@H](O)CN2C(=O)[C@@H](NC(=O)CCCCCNC(=O)Cc2ccccc2)C(C)(C)C)cc1 [Compound 3, (2S,4R)-1-((S)-3,3-Dimethyl-2-(6-(2-phenylacetamido)hexanamido)butanoyl)-4-hydroxy-N-(4-(4-methylthiazol-5-yl)benzyl)pyrrolidine-2-carboxamide]	-1.5	130 ± 3%	0.7 ×10⁻⁶ cm/s	8.4 ×10⁻⁶ cm/s	12	119 nM	–	–	–
Cc1ncsc1-c1ccc(CNC(=O)[C@@H]2C[C@@H](O)CN2C(=O)[C@@H](NC(=O)CCOCCOCCOC(=O)Cc2ccccc2)C(C)(C)C)cc1 [Compound 19, 2-(2-(3-(((S)-1-((2S,4R)-4-Hydroxy-2-((4-(4-methylthiazol-5-yl)benzyl)carbamoyl)pyrrolidin-1-yl)-3,3-dimethyl-1-oxobutan-2-yl)amino)-3-oxopropoxy)ethoxy)ethyl 2-phenylacetate]	–	–	–	–	–	197 ± 27 nM	–	–	–
Cc1ncsc1-c1ccc(CNC(=O)[C@@H]2C[C@@H](O)CN2C(=O)[C@@H](NC(=O)CCOCCOCCOCCNC(=O)Cc2ccccc2)C(C)(C)C)cc1 [Compound 17, (2S,4R)-1-((S)-17-(tert-Butyl)-2,15-dioxo-1-phenyl-6,9,12-trioxa-3,16-diazaoctadecan-18-oyl)-4-hydroxy-N-(4-(4-methylthiazol-5-yl)benzyl)pyrrolidine-2-carboxamide]	-1.9	133 ± 18%	–	2 ×10⁻⁶ cm/s	–	138 nM	–	–	–
Cc1ncsc1-c1ccc(CNC(=O)[C@@H]2C[C@@H](O)CN2C(=O)[C@@H](NC(=O)CCCCCOC(=O)C2CCCCC2)C(C)(C)C)cc1 [Compound 11, 6-(((S)-1-((2S,4R)-4-Hydroxy-2-((4-(4-methylthiazol-5-yl)benzyl)carbamoyl)pyrrolidin-1-yl)-3,3-dimethyl-1-oxobutan-2-yl)amino)-6-oxohexyl cyclohexanecarboxylate]	1.1	14 ± 1%	0.3 ×10⁻⁶ cm/s	35.6 ×10⁻⁶ cm/s	142	–	1.8	–	–
CCCC(=O)NCCCCCC(=O)N[C@H](C(=O)N1C[C@H](O)C[C@H]1C(=O)NCc1ccc(-c2scnc2C)cc1)C(C)(C)C [Compound 2, (2S,4R)-1-((S)-2-(6-Butyramidohexanamido)-3,3-dimethylbutanoyl)-4-hydroxy-N-(4-(4-methylthiazol-5-yl)benzyl)pyrrolidine-2-carboxamide]	-2.2	83 ± 5%	0.4 ×10⁻⁶ cm/s	2.9 ×10⁻⁶ cm/s	7	–	–	–	–
C[C@H]1O[C@@H](O[C@H]2[C@@H](O)C[C@H](O[C@H]3[C@@H](O)C[C@H](O[C@H]4CC[C@@]5(C)[C@H](CC[C@@H]6[C@@H]5C[C@@H](O)[C@]5(C)[C@@H](C7=CC(=O)OC7)CC[C@]65O)C4)O[C@@H]3C)O[C@@H]2C)C[C@H](O)[C@@H]1O [Digoxin, reference compound]	–	–	0.8 ×10⁻⁶ cm/s	21.5 ×10⁻⁶ cm/s	26.3	–	–	–	–
CC(C)NCC(O)COc1cccc2ccccc12 (stereo not shown) [Propranolol, reference compound]	–	–	49.1 ×10⁻⁶ cm/s	41.6 ×10⁻⁶ cm/s	0.8	–	–	–	–
CCCCOc1ccc(-c2ccc(C(=O)OCCCCCC(=O)N[C@H](C(=O)N3C[C@H](O)C[C@H]3C(=O)NCc3ccc(-c4scnc4C)cc3)C(C)(C)C)cc2)cc1 [Compound 14, 6-(((S)-1-((2S,4R)-4-Hydroxy-2-((4-(4-methylthiazol-5-yl)benzyl)carbamoyl)pyrrolidin-1-yl)-3,3-dimethyl-1-oxobutan-2-yl)amino)-6-oxohexyl 4′-butoxy-[1,1′-biphenyl]-4-carboxylate]	–	119 ± 28%	–	–	–	–	–	BLD^h	–
Cc1ncsc1-c1ccc(CNC(=O)[C@@H]2C[C@@H](O)CN2C(=O)[C@@H](NC(=O)CCCCCOC(=O)CC(c2ccccc2)c2ccccc2)C(C)(C)C)cc1 [Compound 13, 6-(((S)-1-((2S,4R)-4-Hydroxy-2-((4-(4-methylthiazol-5-yl)benzyl)carbamoyl)pyrrolidin-1-yl)-3,3-dimethyl-1-oxobutan-2-yl)amino)-6-oxohexyl 3,3-diphenylpropanoate]	1.9	58 ± 6%	0.2 ×10⁻⁶ cm/s	13.9 ×10⁻⁶ cm/s	84	–	1.6	–	–
Cc1ncsc1-c1ccc(CNC(=O)[C@@H]2C[C@@H](O)CN2C(=O)[C@@H](NC(=O)CCOCCOCCOCCOC(=O)Cc2ccccc2)C(C)(C)C)cc1 [Compound 20, (S)-14-((2S,4R)-4-Hydroxy-2-((4-(4-methylthiazol-5-yl)benzyl)carbamoyl)pyrrolidine-1-carbonyl)-15,15-dimethyl-12-oxo-3,6,9-trioxa-13-azahexadecyl 2-phenylacetate]	–	–	–	–	–	144 nM	–	–	–
COCC(=O)NCCCCCC(=O)N[C@H](C(=O)N1C[C@H](O)C[C@H]1C(=O)NCc1ccc(-c2scnc2C)cc1)C(C)(C)C [Compound 1, (2S,4R)-4-Hydroxy-1-((S)-2-(6-(2-methoxyacetamido)hexanamido)-3,3-dimethylbutanoyl)-N-(4-(4-methylthiazol-5-yl)benzyl)pyrrolidine-2-carboxamide]	-2.2	126 ± 4%	0.5 ×10⁻⁶ cm/s	1.7 ×10⁻⁶ cm/s	3	–	–	–	–
Cc1ncsc1-c1ccc(CNC(=O)[C@@H]2C[C@@H](O)CN2C(=O)[C@@H](NC(=O)CCOCCOCCNC(=O)Cc2ccccc2)C(C)(C)C)cc1 [Compound 16, (2S,4R)-1-((S)-14-(tert-Butyl)-2,12-dioxo-1-phenyl-6,9-dioxa-3,13-diazapentadecan-15-oyl)-4-hydroxy-N-(4-(4-methylthiazol-5-yl)benzyl)pyrrolidine-2-carboxamide]	-2.3	151 ± 30%	–	3.3 ×10⁻⁶ cm/s	–	172 ± 17 nM	–	–	–
Cc1ncsc1-c1ccc(CNC(=O)[C@@H]2C[C@@H](O)CN2C(=O)[C@@H](NC(=O)CCOCCNC(=O)Cc2ccccc2)C(C)(C)C)cc1 [Compound 15, (2S,4R)-1-((S)-3,3-Dimethyl-2-(3-(2-(2-phenylacetamido)ethoxy)propanamido)butanoyl)-4-hydroxy-N-(4-(4-methylthiazol-5-yl)benzyl)pyrrolidine-2-carboxamide]	-1.4	103 ± 14%	0.4 ×10⁻⁶ cm/s	4.6 ×10⁻⁶ cm/s	13	171 ± 14 nM	–	–	–
Cc1ncsc1-c1ccc(CNC(=O)[C@@H]2C[C@@H](O)CN2C(=O)[C@@H](NC(=O)CCCCCNC(=O)CC(c2ccccc2)c2ccccc2)C(C)(C)C)cc1 [Compound 6, (2S,4R)-1-((S)-2-(6-(3,3-Diphenylpropanamido)hexanamido)-3,3-dimethylbutanoyl)-4-hydroxy-N-(4-(4-methylthiazol-5-yl)benzyl)pyrrolidine-2-carboxamide]	-0.3	149 ± 9%	0.1 ×10⁻⁶ cm/s	18.5 ×10⁻⁶ cm/s	133	–	–	–	–
Cc1ncsc1-c1ccc(CNC(=O)[C@@H]2C[C@@H](O)CN2C(=O)[C@@H](NC(=O)CCOCCOC(=O)Cc2ccccc2)C(C)(C)C)cc1 [Compound 18, 2-(3-(((S)-1-((2S,4R)-4-Hydroxy-2-((4-(4-methylthiazol-5-yl)benzyl)carbamoyl)pyrrolidin-1-yl)-3,3-dimethyl-1-oxobutan-2-yl)amino)-3-oxopropoxy)ethyl 2-phenylacetate]	–	–	–	–	–	~200 nM	–	–	232 ± 47 nM
Cc1ncsc1-c1ccc(CNC(=O)[C@@H]2C[C@@H](O)CN2C(=O)[C@@H](NC(=O)CCCCCOC(=O)Cc2ccccc2)C(C)(C)C)cc1 [Compound 10, 6-(((S)-1-((2S,4R)-4-Hydroxy-2-((4-(4-methylthiazol-5-yl)benzyl)carbamoyl)pyrrolidin-1-yl)-3,3-dimethyl-1-oxobutan-2-yl)amino)-6-oxohexyl 2-phenylacetate]	–	–	–	–	–	136 nM	–	–	–
Cc1ncsc1-c1ccc(CNC(=O)[C@@H]2C[C@@H](O)CN2C(=O)[C@@H](NC(=O)CCCCCNC(=O)C2CCCCC2)C(C)(C)C)cc1 [Compound 4, (2S,4R)-1-((S)-2-(6-(Cyclohexanecarboxamido)hexanamido)-3,3-dimethylbutanoyl)-4-hydroxy-N-(4-(4-methylthiazol-5-yl)benzyl)pyrrolidine-2-carboxamide]	-1.4	168 ± 20%	0.3 ×10⁻⁶ cm/s	10.3 ×10⁻⁶ cm/s	33	–	–	–	–
CCCCOc1ccc(-c2ccc(C(=O)NCCCCCC(=O)N[C@H](C(=O)N3C[C@H](O)C[C@H]3C(=O)NCc3ccc(-c4scnc4C)cc3)C(C)(C)C)cc2)cc1 [Compound 7, (2S,4R)-1-((S)-2-(6-(4′-Butoxy-[1,1′-biphenyl]-4-carboxamido)hexanamido)-3,3-dimethylbutanoyl)-4-hydroxy-N-(4-(4-methylthiazol-5-yl)benzyl)pyrrolidine-2-carboxamide]	1	83 ± 14%	–	0.2 ×10⁻⁶ cm/s	–	–	–	–	–
